In data set [1] the test system is Trypanosoma brucei rhodesiense. As to the kind of experiment: Anti-protozoan data: T.b.r. IC50. Conditions: read-out: T.b.r. IC50. The data set is classed as cell-based.
In another data set the test system is Plasmodium falciparum. Nature of the data set: Anti-protozoan data: P. falcip. IC50. The data set is classed as cell-based. Conditions: read-out: P. falcip. IC50.
Data set [2] deals with L. donovani axenic amastigotes. As to the kind of experiment: In vitro anti-leishmania activity (IC50 vs. L. donovani axenic amastigotes). The class given is cell-based. To be noted: Leishmania donovani.
Setting [3] is: Tables VI(a), VI(c), read-out: Leishmania donovani IC50.
Where [4] appears, read: axenic amastigotes, Tables I-V, read-out: IC50 vs. L. donovani.

Results on 22 compounds are retold here after patent US20080114047A1 (priority 2003, published 2008).

Like-named read-outs stand apart in the source and are kept apart here. Some results are limits rather than exact numbers.

The IC50 is the point on the concentration scale where inhibition reaches its midpoint. Usually melting point stands for the temperature, or range, at which the solid turns liquid.

`CC(C)NC(=N)c1ccc(OCCCCOc2cccc(-c3cc4cc(C(=N)NC(C)C)ccc4o3)c2)cc1.Cl.Cl` [Compound 36, 2-(3-(4-(4-(N-Isopropylcarbamimidoyl)phenoxy)butoxy)phenyl)-N-isopropylbenzofuran-5-carboxamidine dihydrochloride] yielded a melting point of 207 to 210 °C. In addition, in the data set “in vitro”, the IC50 amounted to 36.5 µM. Further, the IC50 in data set [1] (Tables VI(a), VI(c)) turned out to be 0.537 µM. In addition, in the data set with Plasmodium falciparum (Tables VI(a), VI(c)), the 50% inhibitory concentration (IC50) amounted to 0.269 µM. Besides, in data set [2] (setting [3]), the concentration for half-maximal inhibition (IC50) is 11.2 ± 0.04 µM. The IC50 in data set [2] (setting [4]) was found to be 11.2 ± 0.04 µM.
Take `Cl.Cl.c1cc(OCCCCOc2ccc(C3=NCCN3)cc2)cc(-c2cc3cc(C4=NCCN4)ccc3o2)c1` [Compound 37, 2-(2-(3-(4-(4-(4,5-Dihydro-1H-imidazol-2-yl)phenoxy)butoxy)phenyl)benzofuran-5-yl)-4,5-dihydro-1H-imidazole dihydrochloride]: the melting point was in the range of 190 to 195 °C. Besides, the IC50 in the data set “in vitro” came out at 9.52 µM. The 50% inhibitory concentration (IC50) in data set [1] (Tables VI(a), VI(c)) was 1.17 µM. Further, the 50% inhibitory concentration (IC50) in the data set with Plasmodium falciparum (Tables VI(a), VI(c)) is 0.0986 µM. Moreover, the half-maximal inhibitory concentration (IC50) in data set [2] (setting [3]) stood at 11.7 ± 0.14 µM. Further, the half-inhibitory concentration (IC50) in data set [2] (setting [4]) came to 11.7 ± 0.14 µM.
Regarding `Cl.Cl.N=C(N)c1ccc(OCCCCCCOc2cccc(-c3cc4cc(C(=N)N)ccc4o3)c2)cc1` [Compound 41, 2-(3-(6-(4-Carbamimidoylphenoxy)hexyloxy)phenyl)benzofuran-5-carboxamidine dihydrochloride], the melting point was 208 to 210 °C. Further, in “in vitro”, the IC50 was determined as 3.12 µM. Further, the concentration for half-maximal inhibition (IC50) in data set [1] (Tables VI(a), VI(c)) amounted to 1.61 µM. Further, the half-maximal inhibitory concentration (IC50) in the data set with Plasmodium falciparum (Tables VI(a), VI(c)) was found to be 0.43 µM. Also, the 50% inhibitory concentration (IC50) in data set [2] (setting [3]) turned out to be 22.6 ± 0.23 µM. For the same compound, in data set [2] (setting [4]), the IC50 was determined as 22.6 ± 0.23 µM.
Regarding `CC(C)NC(=N)c1ccc(OCCCCCCOc2cccc(-c3cc4cc(C(=N)NC(C)C)ccc4o3)c2)cc1.Cl.Cl` [Compound 42, 2-(3-(6-(4-(N-Isopropylcarbamimidoyl)phenoxy)hexyloxy)phenyl)-N-isopropylbenzofuran-5-carboxamidine dihydrochloride], the melting point fell in the range of 224 to 227 °C. For the same compound, the IC50 in “in vitro” was 7.36 µM. Besides, the IC50 in data set [1] (Tables VI(a), VI(c)) worked out at 1.16 µM. Besides, the IC50 in the data set with Plasmodium falciparum (Tables VI(a), VI(c)) is 0.183 µM. Besides, the 50% inhibitory concentration (IC50) in data set [2] (setting [3]) was 6.97 ± 1.39 µM. For the same compound, the 50% inhibitory concentration (IC50) in data set [2] (setting [4]) was 6.97 ± 1.39 µM.
As for `c1cc(OCCCCCCOc2ccc(C3=NCCN3)cc2)cc(-c2cc3cc(C4=NCCN4)ccc3o2)c1` [Compound 43, 2-(2-(3-(6-(4-(4,5-Dihydro-1H-imidazol-2-yl)phenoxy)hexyloxy)phenyl)benzofuran-5-yl)-4,5-dihydro-1H-imidazole], the half-inhibitory concentration (IC50) in the data set “in vitro” amounted to 2.46 µM; in data set [1] (Tables VI(a), VI(c)), 0.996 µM; with Plasmodium falciparum (Tables VI(a), VI(c)), 0.0494 µM; in data set [2] (setting [3]) it was 1.92 ± 0.19 µM.
With `CC(C)NC(=N)c1ccc(OCCCCOc2cccc(-c3cc4ccc(C(=N)NC(C)C)cc4o3)c2)cc1.Cl.Cl` [Compound 60, 2-(3-(4-(4-(N-Isopropylcarbamimidoyl)phenoxy)butoxy)phenyl)-N-isopropylbenzofuran-6-carboxamidine dihydrochloride], the melting point lay in the range of 228 to 230 °C. Also, the half-inhibitory concentration (IC50) in “in vitro” stood at 46.5 µM. Moreover, the IC50 in data set [1] (Tables VI(a), VI(c)) was found to be 0.936 µM. Moreover, the half-inhibitory concentration (IC50) in the data set on Plasmodium falciparum (Tables VI(a), VI(c)) is 0.178 µM. In data set [2] (setting [3]), the IC50 is 12.3 ± 0.09 µM. The IC50 in data set [2] (setting [4]) worked out at 12.3 ± 0.09 µM.
In turn, `Cl.Cl.N=C(N)c1ccc(OCCCCCCOc2cccc(-c3cc4ccc(C(=N)N)cc4o3)c2)cc1` [Compound 65, 2-(3-(6-(4-Carbamimidoylphenoxy)hexyloxy)phenyl)benzofuran-6-carboxamidine dihydrochloride] returned a melting point of 268 to 271 °C. This compound displayed an IC50 in the data set “in vitro” of 4.33 µM. The IC50 in data set [1] (Tables VI(a), VI(c)) was determined as 1.22 µM. The IC50 in the data set on Plasmodium falciparum (Tables VI(a), VI(c)) is 0.479 µM. Moreover, the IC50 in data set [2] (setting [3]) stood at 23.6 ± 1.09 µM. Besides, the IC50 in data set [2] (setting [4]) is 23.6 ± 1.09 µM.
On to `CC(C)NC(=N)c1ccc(OCCCCCCOc2cccc(-c3cc4ccc(C(=N)NC(C)C)cc4o3)c2)cc1.Cl.Cl` [Compound 66, 2-(3-(6-(4-(N-Isopropylcarbamimidoyl)phenoxy)hexyloxy)phenyl)-N-isopropylbenzofuran-6-carboxamidine dihydrochloride], for which the melting point lay within 283 to 285 °C. In the data set “in vitro”, this compound came in with a concentration for half-maximal inhibition (IC50) of 10.1 µM. Moreover, the IC50 in data set [1] (Tables VI(a), VI(c)) was found to be 0.42 µM. Also, the IC50 in the data set with Plasmodium falciparum (Tables VI(a), VI(c)) was found to be 0.347 µM. In addition, the IC50 in data set [2] (setting [3]) amounted to 6.18 ± 0.06 µM. The IC50 in data set [2] (setting [4]) was 6.18 ± 0.06 µM.
Turning to `Cl.Cl.N=C(N)c1ccc(OCCCCCOc2ccc(-c3cc4ccc(C(=N)N)cc4o3)cc2)cc1` [Compound 74, 2-(4-(5-(4-Carbamimidoylphenoxy)pentyloxy)phenyl)benzofuran-6-carboxamidine dihydrochloride], the melting point is 285 °C (dec.). In addition, half-maximal inhibition in “in vitro” (IC50) was put at 8.98 µM. Besides, the half-inhibitory concentration (IC50) in data set [1] (Tables VI(a), VI(c)) was found to be 0.314 µM. Also, the concentration for half-maximal inhibition (IC50) with Plasmodium falciparum (Tables VI(a), VI(c)) worked out at 0.268 µM. Moreover, in data set [2] (setting [3]), the concentration for half-maximal inhibition (IC50) was determined as 2.9 ± 0.14 µM.
In turn, `Cl.Cl.N=C(N)c1ccc(OCCCCCCOc2ccc(-c3cc4ccc(C(=N)N)cc4o3)cc2)cc1` [Compound 77, 2-(4-(6-(4-Carbamimidoylphenoxy)hexyloxy)phenyl)benzofuran-6-carboxamidine dihydrochloride] yielded a melting point of 310 to 311 °C. Moreover, the IC50 in “in vitro” came out at 8.02 µM. Moreover, in data set [1] (Tables VI(a), VI(c)), the half-inhibitory concentration (IC50) is 0.416 µM. Also, the half-inhibitory concentration (IC50) in the data set with Plasmodium falciparum (Tables VI(a), VI(c)) came out at 0.28 µM.
For `N=C(N)c1cccc(-c2cc3ccc(C(=N)N)cc3o2)c1` [Compound 169, 2-(3-carbamimidoylphenyl)benzofuran-6-carboxamidine], the concentration for half-maximal inhibition (IC50) amounted to 131 µM in the data set “in vitro”; 0.021 µM in data set [1]; 0.0035 µM in the data set with Plasmodium falciparum; 14.4 µM in data set [2] (setting [4]); 14.4 µM in data set [2] (read-out: L. Donovani IC50).
Turning to `CC(C)NC(=N)c1cccc(-c2cc3ccc(C(=N)NC(C)C)cc3o2)c1` [Compound 170, 2-(3-(N-isopropylcarbamimidoyl)phenyl)-N-isopropylbenzofuran-6-carboxamidine], the concentration for half-maximal inhibition (IC50) in “in vitro” is greater than 200 µM; in data set [1], 0.534 µM; in the data set on Plasmodium falciparum, 0.0586 µM; in data set [2] (setting [4]), 24.4 ± 0.1 µM; in data set [2] (read-out: L. Donovani IC50) it was 24.4 ± 0.1 µM.
Take `c1cc(C2=NCCN2)cc(-c2cc3ccc(C4=NCCN4)cc3o2)c1` [Compound 171, 2-(3-(6-(4,5-dihydro-1H-imidazol-2-yl)benzofuran-2-yl)phenyl)-4,5-dihydro-1H-imidazole]: the IC50 was 12.8 µM in “in vitro”; 0.333 µM in data set [1]; 0.205 µM in the data set on Plasmodium falciparum; greater than 100 µM in data set [2] (setting [4]); greater than 100 µM in data set [2] (read-out: L. Donovani IC50).
Regarding `N=C(N)c1ccc(-c2cc3ccc(C(=N)N)cc3o2)cc1` [Compound 172, 2-(4-carbamimidoylphenyl)benzofuran-6-carboxamidine], the half-maximal inhibitory concentration (IC50) in the data set “in vitro” is 0.83 µM; in data set [1], 0.0069 µM; in the data set on Plasmodium falciparum, 0.0031 µM; in data set [2] (setting [4]), 3.13 ± 0.15 µM; in data set [2] (read-out: L. Donovani IC50), 3.13 ± 0.15 µM.
As for `CC(C)NC(=N)c1ccc(-c2cc3ccc(C(=N)NC(C)C)cc3o2)cc1` [Compound 173, 2-(4-(N-isopropylcarbamimidoyl)phenyl)-N-isopropylbenzofuran-6-carboxamidine], the half-inhibitory concentration (IC50) in the data set “in vitro” is greater than 199 µM; in data set [1], 0.148 µM; in the data set with Plasmodium falciparum, 0.0145 µM; in data set [2] (setting [4]) it was 11.8 ± 1.28 µM; in data set [2] (read-out: L. Donovani IC50) it was 11.8 ± 1.28 µM.
Consider `c1cc(-c2cc3ccc(C4=NCCN4)cc3o2)ccc1C1=NCCN1` [Compound 174, 2-(4-(6-(4,5-dihydro-1H-imidazol-2-yl)benzofuran-2-yl)phenyl)-4,5-dihydro-1H-imidazole], for which the IC50 in “in vitro” was 4.52 µM; in data set [1], 0.319 µM; with Plasmodium falciparum it was 0.109 µM; in data set [2] (setting [4]), greater than 50 µM; in data set [2] (read-out: L. Donovani IC50) it was greater than 50 µM.
For the compound `COc1cc(C(=N)N)cc2cc(-c3ccc(C(=N)N)cc3)oc12` [Compound 175, 2-(4-carbamimidoylphenyl)-7-methoxybenzofuran-5-carboxamidine], the IC50 was 30.7 µM in the data set “in vitro”; 0.006 µM in data set [1]; 0.0056 µM with Plasmodium falciparum; 3 ± 0.56 µM in data set [2] (setting [4]); 3 ± 0.56 µM in data set [2] (read-out: L. Donovani IC50).
Turning to `COc1cc(C2=NCCN2)cc2cc(-c3ccc(C4=NCCN4)cc3)oc12` [Compound 177, 2-(4-(5-(4,5-dihydro-1H-imidazol-2-yl)-7-methoxybenzofuran-2-yl)phenyl)-4,5-dihydro-1H-imidazole], the IC50 came out at 19.9 µM in the data set “in vitro”; 0.124 µM in data set [1]; 0.0323 µM in the data set on Plasmodium falciparum; 4.45 ± 0.36 µM in data set [2] (setting [4]); 4.45 ± 0.36 µM in data set [2] (read-out: L. Donovani IC50).
As for `N=C(NO)c1cccc(-c2cc3ccc(C(=N)NO)cc3o2)c1` [Compound 180, 2-(3-(N-Hydroxycarbamimidoyl)phenyl)-N-hydroxybenzofuran-6-carboxamidine], the IC50 in “in vitro” was found to be 13.8 µM; in data set [1], 37.8 µM; in the data set with Plasmodium falciparum, 1.85 µM; in data set [2] (read-out: L. Donovani IC50), 68.5 ± 6.16 µM.
For `N=C(NO)c1ccc(-c2cc3ccc(C(=N)NO)cc3o2)cc1` [Compound 181, 2-(4-(N-Hydroxycarbamimidoyl)phenyl)-N-hydroxybenzofuran-6-carboxamidine], the IC50 was greater than 222 µM in the data set “in vitro”, 3.1 µM in data set [1], 0.609 µM in the data set on Plasmodium falciparum and greater than 100 µM in data set [2] (read-out: L. Donovani IC50).
As for `N=C(NO)c1ccc(OCCCCCOc2ccc(-c3cc4cc(C(=N)NO)ccc4o3)cc2)cc1` [Compound 183, 2-(4-(5-(4-(N-Hydroxycarbamimidoyl)phenoxy)pentyloxy)phenyl)-N-hydroxybenzofuran-5-carboxamidine], the IC50 came out at 8.28 µM in “in vitro”; 1.55 µM in data set [1] (Tables VI(a), VI(c)); 0.291 µM with Plasmodium falciparum (Tables VI(a), VI(c)).
With `N=C(NO)c1ccc2oc(CCc3cc4cc(C(=N)NO)ccc4o3)cc2c1` [Compound 190, 2-(2-(5-(N-Hydroxycarbamimidoyl)benzofuran-2-yl)ethyl)-N-hydroxybenzofuran-5-carboxamidine], the IC50 in the data set “in vitro” was greater than 199 µM; in data set [1] (Tables VI(a), VI(c)) it was 10.1 µM; in the data set with Plasmodium falciparum (Tables VI(a), VI(c)) it was 0.4 µM.
